# Target: T1, Cholecystokinin receptor type A (Rattus norvegicus) (UniProt P30551)
# T1 sequence (whole entry): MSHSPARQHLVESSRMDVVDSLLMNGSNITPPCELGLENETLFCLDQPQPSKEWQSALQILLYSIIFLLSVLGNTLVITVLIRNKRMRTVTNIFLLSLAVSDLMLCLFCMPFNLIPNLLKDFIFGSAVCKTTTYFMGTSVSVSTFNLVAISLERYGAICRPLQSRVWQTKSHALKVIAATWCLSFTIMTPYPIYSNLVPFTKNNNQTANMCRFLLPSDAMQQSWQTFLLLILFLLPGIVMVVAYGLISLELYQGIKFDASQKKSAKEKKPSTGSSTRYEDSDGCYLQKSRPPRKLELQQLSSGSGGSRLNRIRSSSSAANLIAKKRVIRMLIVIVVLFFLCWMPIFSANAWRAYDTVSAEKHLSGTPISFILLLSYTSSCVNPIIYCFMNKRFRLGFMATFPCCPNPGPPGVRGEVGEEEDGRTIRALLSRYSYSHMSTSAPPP
# Test: Displacement of [125I]CCK from rat CCK1 receptor expressed in CHO cells
# Format: cell-based
smiles,measurement,value
CN1C(=O)[C@@H](NC(=O)c2cc3ccccc3[nH]2)N=C(c2ccccc2)c2ccccc21,pKb,8.35

# Source: ChEMBL document CHEMBL1155857, “Benzodiazepine ligands can act as allosteric modulators of the Type 1 cholecystokinin receptor” (Bioorg Med Chem Lett, 2008)
